# Patent US10758513B2, “Modulators of mitochondrial protein import” (THE REGENTS OF THE UNIVERSITY OF CALIFORNIA, priority 2011, dated 2020)
# Key:
# [1] = tested on: tim10-1 tim9S mitochondria; assay: Respiration (oxygen electrode) of tim10-1 tim9S mitochondria; format: biochemical, yeast; conditions: NADH; 25 μM MitoBloCK-1; CCCP as control
# Experimental: Oxygen consumption of […] mitochondria was measured using methods previously described (8). Briefly, purified […] mitochondria aliquots (25 mg/mL) were thawed on ice and tested within 2 hours. A Clark-type oxygen electrode in a stirred, thermostatically controlled 1.5-ml chamber at 25° C. (Oxytherm; Hansatech) facilitated measurement. […] Consumption rate was monitored for approximately 2 min.
# [2] = tested on: tim10-1 tim9S mitochondria; assay: Membrane potential with rhodamine 123; format: biochemical, yeast; conditions: 25 μM MitoBloCK-1; CCCP as control
# Experimental: Membrane potential measurement assays were conducted with a SPEX spectrofluorometer system (HORIBA Jobin Yvon) with a magnetically stirred cuvette held at 25° C. The quenching of rhodamine 123 fluorescence (Em, =530 nm and Ex=485 nm) was used as previously described (9) to detect changes in mitochondrial membrane potential. Purified tim10-1 tim9S mitochondrial aliquots were thawed and resuspended in respiration buffer (0.65 M mannitol, 0.3 mM EGTA, 3 mm tris-phosphate, 10 mM tris-maleate, pH 6.75). Trials were started by adding 100 nM of rhodamine 123 to respiration buffer. After a period of signal stabilization, mitochondria were added to a concentration of 100 μg/mL. Either drug or DMSO was then added to a final vehicle concentration of 1% following the establishment of baseline quenched fluorescence. Finally, mitochondria were uncoupled with 3 μM CCCP.
# WT mitochondria = assay: Respiration of WT mitochondria with NADH (oxygen electrode); format: biochemical, yeast; conditions: 25 μM MitoBloCK-6; CCCP control
# Experimental: Oxygen consumption of WT mitochondria was measured using methods previously described (Claypool et al., 2008a). Briefly, purified WT mitochondria (25 mg/ml) were thawed on ice and tested within 2 hours. Oxygen consumption assays were performed with a Clark-type oxygen electrode in a stirred thermostatically controlled 1.5-ml chamber at 25° C. (Oxytherm, Hansatech). […] Consumption rate was monitored for approximately 2 min. […] Consumption rate was monitored for approximately 3 mins. MitoBloCK-6, SAR compounds, or DMSO was then added and respiration measured for another 3 mins. Uncoupled respiration was achieved as described above.
# HeLa cells [3] = assay: Mitochondrial morphology in HeLa cells; format: cell-based; conditions: 50 μM 12-16 h, up to 100 μM, 20 μM CCCP control
# Experimental: (A) HeLa cells were transiently transfected with Su9-EGFP. Following transfection, cells were treated for 12 hr with 50 μM MitoBloCK-6 or control 1% DMSO. As a positive control, cells were incubated with 20 μM CCCP to dissipate the membrane potential. Mitochondria were also stained with 10 μM MitoTracker Red. Mitochondrial morphology was assessed by fluorescence microscopy and the Mitotracker Red and GFP channels were superimposed (Merge). (B) The effect of MitoBloCK-6 on the viability of HeLa cells was assessed with a MTT-based toxicology assay. Cultured cells were treated for 12-16 hr with DMSO or 50 μM and 100 μM MitoBloCK-6. Bars display mean cell viability where 100% was defined as signal from untreated samples. Error bars display standard error of the mean (n=5). (C) The release of cyt c was investigated. Cells were treated with 1% DMSO or 50 μM MitoBloCK-6 for 12-16 hr and fractionated into mitochondrial (M) and cytosolic (C) fractions. Release of mitochondrial proteins was assessed by immunoblot analysis with antibodies against cyt c, Complex V (ATP synthase subunit alpha), pyruvate dehydrogenase (PDH), and cytosolic GAPDH. Treatment with 1 μM staurosporine for 4 hr induced apoptosis and was included as a positive control.
# For microscopy experiments, HeLa or HEK293 cells were transiently transfected with Su9-EGFP (Lipofectamine, Invitrogen) at 80% confluency. […]
# succinate dehydrogenase = biological target: T1, succinate dehydrogenase (Saccharomyces cerevisiae, UniProt Q00711); assay: Succinate dehydrogenase activity in WT mitochondria (oxygen electrode); format: biochemical, yeast; conditions: 25 or 50 μM MitoBloCK-6; 20 mM malonate control
# T1 construct: endogenous in cells; host or cells: mitochondria isolated from WT yeast
# Experimental: (A) 160 μM insulin was reacted with 3 units of PDI in the presence of buffer, 1 mM bacitracin, or MitoBloCK-6 (MB-6). Reduction of insulin chains was initiated by the addition of DTT. The samples were incubated for 30 min at room temperature and then the turbidity was measured at a wavelength of 630 nm using a Bio-Tek plate-reader. (B) Succinate dehydrogenase activity was measured in WT mitochondria using a Clark-type oxygen electrode. Respiration was initiated with 10 mM succinate and, when steady-state respiration was established, 25 or 50 μM MitoBloCK-6, 50 μM ES-1, 50 μM ES-2, or 1% DMSO was added. Controls included 20 mM malonate that inhibits succinate dehydrogenase activity and CCCP that uncouples electron transport. The rate is reported as nmol O2 consumed/sec.
# Oxygen consumption of WT mitochondria was measured using methods previously described (Claypool et al., 2008a). Briefly, purified WT mitochondria (25 mg/ml) were thawed on ice and tested within 2 hours. […] Consumption rate was monitored for approximately 2 min. MitoBloCK-6 or DMSO was then added to a final vehicle concentration of 1% and respiration was measured for another approximately 1.5 min. […] Consumption rate was monitored for approximately 3 mins. MitoBloCK-6, SAR compounds, or DMSO was then added and respiration measured for another 3 mins. […]
# zebrafish embryos = assay: Zebrafish embryo development; format: in vivo
# Experimental: Zebrafish used for o-dianisidine staining of red blood cells in DMSO and MitoBloCK-6 treated fish were albino lines generated from crosses of TL and TU fish. Line AB were injected with the ALR morpholino. Lines were maintained in a 14-hr light/10-hr dark cycle and mated for one hour to obtain synchronized embryonic development. […] Following treatment, embryos were imaged using a Leica MZ16F fluorescent stereoscope (TexasRed filter set) at 5× magnification. […] Embryos were allowed to mature to 2 dpf and then imaged like the MitoBloCK-6 treated embryos; embryos were imaged at day 2 because of concerns with morpholino dilution. Images were resized to 300 dpi without resampling using Adobe Photoshop software.
# [4] = tested on: tim10-1 tim9S mitochondria; assay: In vitro import of radiolabeled precursors into tim10-1 tim9S mitochondria; format: biochemical, yeast; conditions: SAR study
# Experimental: Prior to import into purified mitochondria, ^35S-methionine and cysteine labeled proteins were generated with TNT Quick Coupled Transcription/Translation kits (Promega) and plasmids carrying the gene of interest. Transcription of genes was driven by either a T7 or SP6 promoter. Import reactions were conducted according to established methods. After frozen mitochondria aliquots were thawed and added to the import buffer at a final concentration of 100 μg/mL, drug or DMSO vehicle was added as indicated. A final vehicle concentration of 1% was used in all experiments. Following 15 minute incubation at 25° C., import reactions were initiated by the addition of […] of translation mix. Aliquots were removed at intervals during the reaction timecourse and import was terminated with either cold buffer, 25 μg/mL trypsin, or a combination of both. If trypsin was added to digest unimported precursor protein, soybean trypsin inhibitor (STI) was subsequently added in excess after 15 minute incubation on ice. After a final recovery of by centrifugation (8,000×g, 5 minutes), mitochondria were disrupted in Laemmli sample buffer. Imports of membrane proteins (AAC, PiC, Tom40, Tim22, and Tim23) included a carbonate extraction step to remove proteins that had not inserted into the membrane (Koehler C M, et al. (1998), Science 279:369-373). Samples from import reaction time points were resolved by SDS polyacrylamide gel electrophoresis (SDSPAGE) and gels were dried prior to exposing to film.
# HeLa cells [5] = assay: Cyt c release assay by cell fractionation in HeLa cells; format: cell-based; conditions: 50 μM MitoBloCK-6 12-16 h, 1 μM staurosporine 4 h
# Experimental: For cyt c release assays, a cell fractionation kit (MitoSciences) was used. Briefly, HeLa or HEK293 cells were grown in 10 cm^2 dishes to 80% confluency and then cells were treated with DMSO or MitoBloCK-6 in complete medium for 12-16 h. […] Cells were fractionated to obtain cytosolic and mitochondrial fractions; 100 μg of each fraction was analyzed by SDS-PAGE. Blots were probed with ApoTrack cyt c apoptosis antibody cocktail (MitoSciences).
# Erv1 = biological target: T2, Erv1 (Saccharomyces cerevisiae, UniProt P27882); assay: In vitro Erv1 oxidase activity, Amplex Red-HRP assay; format: biochemical, yeast; conditions: 100 μM
# T2 construct: made in house
# T2 sequence (P27882 1-189): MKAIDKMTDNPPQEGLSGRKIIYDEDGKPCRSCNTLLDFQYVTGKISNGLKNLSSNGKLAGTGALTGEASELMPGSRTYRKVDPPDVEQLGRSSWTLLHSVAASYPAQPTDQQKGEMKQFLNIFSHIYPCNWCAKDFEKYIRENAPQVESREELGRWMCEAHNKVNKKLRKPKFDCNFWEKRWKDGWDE
# Experimental: The primary chemical screen used fresh recombinant Erv1 (in buffer 30 mM Hepes, pH 7.4, 100 mM NaCl, 1 mM EDTA) at a concentration of 10 μM, which was expressed as described previously. […] A Biomek FX (Beckman Coulter) was used to pin transfer 0.5 μl of compound from 1 mM stock or DMSO to respective wells. Approximate screening
# concentration was 12.5 μM. After completed compound transfer, all plates were incubated at 25° C. in a humidified incubator for 1 hour. A Titertek multidrop was used to dispense 15 μl of Amplex Red-horseradish peroxidase (HRP) (Sigma) mix into all wells of the 384-well plate. The final concentration of Amplex Red and HRP were 46 μM and 0.092 U/ml, respectively. The Amplex Red-HRP solution was shielded from light during the entire experiment. The plates were incubated for an additional 10 min and then 15 μl of the substrate DTT (20 μM) was added to initiate the reduction of 02 to H2O2. […] Plates were then read at an endpoint using an excitation wavelength of 545 nm and an emission wavelength of 590 nm. […]
# H2O2 production was measured using a standard fluorometric assay with Amplex Red and horseradish peroxidase (HRP). […] Fluorescence intensity was measured and reactions that were inhibited by more than 50% were picked as potential Erv1 inhibitors and selected for secondary analysis.
# T1 sequence (Q00711 29-640): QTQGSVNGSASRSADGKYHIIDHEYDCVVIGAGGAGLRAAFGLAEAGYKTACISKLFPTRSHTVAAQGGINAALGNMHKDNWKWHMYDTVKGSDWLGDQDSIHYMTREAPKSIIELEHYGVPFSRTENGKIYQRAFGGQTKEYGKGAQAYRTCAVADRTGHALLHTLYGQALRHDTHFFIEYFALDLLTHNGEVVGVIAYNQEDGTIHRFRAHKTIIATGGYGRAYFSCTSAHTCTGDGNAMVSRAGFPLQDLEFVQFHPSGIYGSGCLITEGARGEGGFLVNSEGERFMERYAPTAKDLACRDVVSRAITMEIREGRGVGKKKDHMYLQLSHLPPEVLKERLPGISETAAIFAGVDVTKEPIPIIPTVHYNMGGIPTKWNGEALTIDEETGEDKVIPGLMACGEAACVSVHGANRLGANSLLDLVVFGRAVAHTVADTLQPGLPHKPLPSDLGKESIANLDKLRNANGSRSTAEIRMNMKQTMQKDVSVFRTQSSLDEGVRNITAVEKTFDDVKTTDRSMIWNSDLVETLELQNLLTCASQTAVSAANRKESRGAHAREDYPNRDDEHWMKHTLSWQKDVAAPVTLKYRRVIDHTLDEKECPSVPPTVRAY
# T1 sequence (P21801 21-266 partner): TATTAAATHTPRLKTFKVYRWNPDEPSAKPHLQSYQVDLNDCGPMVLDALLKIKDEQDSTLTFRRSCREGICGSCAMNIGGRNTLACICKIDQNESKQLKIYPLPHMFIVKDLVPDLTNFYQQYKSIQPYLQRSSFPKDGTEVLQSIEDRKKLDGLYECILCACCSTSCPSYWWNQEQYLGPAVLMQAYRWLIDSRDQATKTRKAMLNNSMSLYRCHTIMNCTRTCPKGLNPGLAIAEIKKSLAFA
# T1 sequence (P33421 51-198 partner): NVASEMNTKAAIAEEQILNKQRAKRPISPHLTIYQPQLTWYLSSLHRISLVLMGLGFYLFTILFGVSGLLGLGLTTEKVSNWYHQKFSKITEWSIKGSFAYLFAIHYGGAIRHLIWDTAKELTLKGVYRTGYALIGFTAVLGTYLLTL
# T1 sequence (P37298 32-181 partner): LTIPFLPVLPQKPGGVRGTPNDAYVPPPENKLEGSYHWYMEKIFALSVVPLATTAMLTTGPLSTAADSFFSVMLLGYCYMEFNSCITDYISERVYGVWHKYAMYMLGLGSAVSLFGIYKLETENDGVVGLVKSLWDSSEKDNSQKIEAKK
compound,measurement,setting,value
"N#CC(C#N)=NNc1cccc(Cl)c1 [CCCP, carbonyl cyanide m-chlorophenylhydrazone, reference compound]",rate of respiration,[1],respiration increased drastically
same,rhodamine 123 fluorescence (membrane potential),[2],sharp increase in fluorescence
same,oxygen consumption rate (NADH respiration),WT mitochondria,respiration increased drastically
same,mitochondrial network / morphology,HeLa cells [3],caused the mitochondrial network to collapse around the nucleus
O=C(O)CC(=O)O [malonate],succinate dehydrogenase activity (oxygen consumption rate with succinate),succinate dehydrogenase,disrupted
ALR morpholino: ATG morpholino targeted to zebrafish ALR protein (GAGGGTTGCCAGATCTCTGTTAAAT) (all phosphorodiamidate morpholino (PMO)) [reference compound],phenotypes of morpholino-injected embryos,zebrafish embryos; 4 ng injected in 1-cell embryos,identical to that of MitoBlock-6 exposure
same,decreased heart rate,zebrafish embryos; embryos treated with MitoBloCK-6 or ALR morpholino,25%
Cc1ccc2c(c1)C1CCC/C(=N\NC(N)=S)C1N2C (stereo not shown) [Analog B],inhibition of import of AAC by analogs,[4],Analog D was the only compound to inhibit import of AAC
CN[C@@H]1C[C@H]2O[C@@](C)([C@@H]1OC)n1c3ccccc3c3c4c(c5c6ccccc6n2c5c31)C(=O)NC4 [staurosporine],cyt c release,HeLa cells [5],showed cyt c release
"O=Cc1cc(Cl)cc(Cl)c1O [3,5-dichlorosalicylaldehyde, reference compound]",Erv1 activity,Erv1,did not inhibit Erv1 activity
